Laboratory results published in PubChem BioAssay (NCI).
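Protocol summary: plate cells (96-well), add compound at 5 concentrations, incubate 48 h, interpolate endpoints linearly. Here, GI50 denotes the concentration required for 50% inhibition of growth. Definition used: TGI = concentration required for complete inhibition of growth.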

Experiments:
Test in all cases: growth of human tumour cells (NCI), 48 h
786-0 renal = system: 786-0 renal
A498 renal = system: A498 renal
A549 NSCLC = system: A549 NSCLC
ACHN renal = system: ACHN renal
BT-549 breast = system: BT-549 breast
CAKI-1 renal = system: CAKI-1 renal
CCRF-CEM leukemia = system: CCRF-CEM leukemia
COLO 205 colon = system: COLO 205 colon
DU-145 prostate = system: DU-145 prostate
EKVX NSCLC = system: EKVX NSCLC
HCC-2998 colon = system: HCC-2998 colon
HCT-116 colon = system: HCT-116 colon
HCT-15 colon = system: HCT-15 colon
HL-60(TB) leukemia = system: HL-60(TB) leukemia
HOP-62 NSCLC = system: HOP-62 NSCLC
HOP-92 NSCLC = system: HOP-92 NSCLC
HS 578T breast = system: HS 578T breast
HT29 colon = system: HT29 colon
IGROV1 ovarian = system: IGROV1 ovarian
K-562 leukemia = system: K-562 leukemia
KM12 colon = system: KM12 colon
LOX IMVI melanoma = system: LOX IMVI melanoma
M14 melanoma = system: M14 melanoma
MALME-3M melanoma = system: MALME-3M melanoma
MCF7 breast = system: MCF7 breast
MDA-MB-231 breast = system: MDA-MB-231 breast
MDA-MB-435 = system: MDA-MB-435
MDA-MB-468 breast = system: MDA-MB-468 breast
MOLT-4 leukemia = system: MOLT-4 leukemia
NCI-H226 lung = system: NCI-H226 lung
NCI-H23 lung = system: NCI-H23 lung
NCI-H460 lung = system: NCI-H460 lung
NCI-H522 lung = system: NCI-H522 lung
NCI/ADR-RES ovarian = system: NCI/ADR-RES ovarian
OVCAR-3 ovarian = system: OVCAR-3 ovarian
OVCAR-4 ovarian = system: OVCAR-4 ovarian
OVCAR-5 ovarian = system: OVCAR-5 ovarian
OVCAR-8 ovarian = system: OVCAR-8 ovarian
PC-3 prostate = system: PC-3 prostate
RPMI-8226 leukemia = system: RPMI-8226 leukemia
RXF 393 renal = system: RXF 393 renal
SF-268 CNS = system: SF-268 CNS
SF-295 CNS = system: SF-295 CNS
SF-539 CNS = system: SF-539 CNS
SK-MEL-2 melanoma = system: SK-MEL-2 melanoma
SK-MEL-28 melanoma = system: SK-MEL-28 melanoma
SK-MEL-5 melanoma = system: SK-MEL-5 melanoma
SK-OV-3 ovarian = system: SK-OV-3 ovarian
SN12C renal = system: SN12C renal
SNB-19 CNS = system: SNB-19 CNS
SNB-75 CNS = system: SNB-75 CNS
SR leukemia = system: SR leukemia
SW-620 colon = system: SW-620 colon
T-47D breast = system: T-47D breast
TK-10 renal = system: TK-10 renal
U251 CNS = system: U251 CNS
UACC-257 melanoma = system: UACC-257 melanoma
UACC-62 melanoma = system: UACC-62 melanoma
UO-31 renal = system: UO-31 renal

Q: `CN(C)c1nc(NCCNS(=O)(=O)c2ccc(C(=O)/C=C/c3ccccc3)cc2)nc(Nc2ccc(F)cc2)n1` was tested. Which GI50 (786-0 renal) did it give?
A: 11.2 µM

Q: And the TGI (786-0 renal)?
A: 25.3 µM

Q: What about the GI50 (A498 renal) of the same compound?
A: 11.6 µM

Q: What about the TGI (A498 renal) of the same compound?
A: 24 µM

Q: And the GI50 (A549 NSCLC)?
A: 8.33 µM

Q: And the TGI (A549 NSCLC)?
A: 26 µM

Q: What about the GI50 (ACHN renal) of the same compound?
A: 4.92 µM

Q: And the TGI (ACHN renal)?
A: 17.3 µM

Q: And the GI50 (BT-549 breast)?
A: 13.9 µM

Q: What about the TGI (BT-549 breast) of the same compound?
A: 27.5 µM

Q: And the GI50 (CAKI-1 renal)?
A: 4.75 µM

Q: And the TGI (CAKI-1 renal)?
A: 19.7 µM

Q: And the GI50 (CCRF-CEM leukemia)?
A: 6.59 µM

Q: What about the TGI (CCRF-CEM leukemia) of the same compound?
A: > 100 µM

Q: What about the GI50 (COLO 205 colon) of the same compound?
A: 5.46 µM

Q: What about the TGI (COLO 205 colon) of the same compound?
A: 20.8 µM

Q: What about the GI50 (DU-145 prostate) of the same compound?
A: 12.1 µM

Q: What about the TGI (DU-145 prostate) of the same compound?
A: 25.3 µM

Q: And the GI50 (EKVX NSCLC)?
A: 4.48 µM

Q: What about the TGI (EKVX NSCLC) of the same compound?
A: 14.8 µM

Q: What about the GI50 (HCC-2998 colon) of the same compound?
A: 2.35 µM

Q: And the TGI (HCC-2998 colon)?
A: 5.46 µM

Q: What about the GI50 (HCT-116 colon) of the same compound?
A: 1.72 µM

Q: What about the TGI (HCT-116 colon) of the same compound?
A: 3.24 µM

Q: And the GI50 (HCT-15 colon)?
A: 2.04 µM

Q: And the TGI (HCT-15 colon)?
A: 3.84 µM

Q: What about the GI50 (HL-60(TB) leukemia) of the same compound?
A: 3.88 µM

Q: What about the TGI (HL-60(TB) leukemia) of the same compound?
A: 29.3 µM

Q: What about the GI50 (HOP-62 NSCLC) of the same compound?
A: 11.8 µM

Q: What about the TGI (HOP-62 NSCLC) of the same compound?
A: 26.8 µM

Q: What about the GI50 (HOP-92 NSCLC) of the same compound?
A: 8.1 µM

Q: And the TGI (HOP-92 NSCLC)?
A: 23.4 µM

Q: And the GI50 (HS 578T breast)?
A: 7.39 µM

Q: And the TGI (HS 578T breast)?
A: 57.8 µM

Q: What about the GI50 (HT29 colon) of the same compound?
A: 3.08 µM

Q: And the TGI (HT29 colon)?
A: 10.6 µM

Q: And the GI50 (IGROV1 ovarian)?
A: 11.2 µM

Q: What about the TGI (IGROV1 ovarian) of the same compound?
A: 23.8 µM

Q: What about the GI50 (K-562 leukemia) of the same compound?
A: 3.34 µM

Q: And the TGI (K-562 leukemia)?
A: 18.6 µM

Q: What about the GI50 (KM12 colon) of the same compound?
A: 3.74 µM

Q: What about the TGI (KM12 colon) of the same compound?
A: 14 µM

Q: And the GI50 (LOX IMVI melanoma)?
A: 2.47 µM

Q: What about the TGI (LOX IMVI melanoma) of the same compound?
A: 7.14 µM

Q: And the GI50 (M14 melanoma)?
A: 5.98 µM

Q: And the TGI (M14 melanoma)?
A: 20 µM

Q: What about the GI50 (MALME-3M melanoma) of the same compound?
A: 12.7 µM

Q: And the TGI (MALME-3M melanoma)?
A: 26.3 µM

Q: And the GI50 (MCF7 breast)?
A: 1.99 µM

Q: What about the TGI (MCF7 breast) of the same compound?
A: 4.05 µM

Q: And the GI50 (MDA-MB-231 breast)?
A: 4.84 µM

Q: What about the TGI (MDA-MB-231 breast) of the same compound?
A: 18.1 µM

Q: And the GI50 (MDA-MB-435)?
A: 7.44 µM

Q: And the TGI (MDA-MB-435)?
A: 23 µM

Q: And the GI50 (MDA-MB-468 breast)?
A: 2.84 µM

Q: And the TGI (MDA-MB-468 breast)?
A: 12.8 µM

Q: And the GI50 (MOLT-4 leukemia)?
A: 3.22 µM

Q: What about the TGI (MOLT-4 leukemia) of the same compound?
A: 29.6 µM

Q: What about the GI50 (NCI-H226 lung) of the same compound?
A: 5.22 µM

Q: What about the TGI (NCI-H226 lung) of the same compound?
A: 19.8 µM

Q: And the GI50 (NCI-H23 lung)?
A: 10.1 µM

Q: And the TGI (NCI-H23 lung)?
A: 22.5 µM

Q: And the GI50 (NCI-H460 lung)?
A: 4.34 µM

Q: And the TGI (NCI-H460 lung)?
A: 16.8 µM

Q: What about the GI50 (NCI-H522 lung) of the same compound?
A: 5.47 µM

Q: What about the TGI (NCI-H522 lung) of the same compound?
A: 20.4 µM

Q: And the GI50 (NCI/ADR-RES ovarian)?
A: 7.33 µM

Q: And the TGI (NCI/ADR-RES ovarian)?
A: 21.1 µM

Q: And the GI50 (OVCAR-3 ovarian)?
A: 8.59 µM

Q: And the TGI (OVCAR-3 ovarian)?
A: 21.4 µM

Q: What about the GI50 (OVCAR-4 ovarian) of the same compound?
A: 4.39 µM

Q: What about the TGI (OVCAR-4 ovarian) of the same compound?
A: 23.1 µM

Q: What about the GI50 (OVCAR-5 ovarian) of the same compound?
A: 13.3 µM

Q: What about the TGI (OVCAR-5 ovarian) of the same compound?
A: 26.6 µM

Q: What about the GI50 (OVCAR-8 ovarian) of the same compound?
A: 12.2 µM

Q: What about the TGI (OVCAR-8 ovarian) of the same compound?
A: 26.4 µM

Q: What about the GI50 (PC-3 prostate) of the same compound?
A: 4.39 µM

Q: What about the TGI (PC-3 prostate) of the same compound?
A: 20.6 µM

Q: What about the GI50 (RPMI-8226 leukemia) of the same compound?
A: 3.04 µM

Q: What about the TGI (RPMI-8226 leukemia) of the same compound?
A: > 100 µM

Q: What about the GI50 (RXF 393 renal) of the same compound?
A: 2.94 µM

Q: And the TGI (RXF 393 renal)?
A: 14.6 µM

Q: What about the GI50 (SF-268 CNS) of the same compound?
A: 5.65 µM

Q: And the TGI (SF-268 CNS)?
A: 22.2 µM

Q: And the GI50 (SF-295 CNS)?
A: 6.96 µM

Q: And the TGI (SF-295 CNS)?
A: 19.3 µM

Q: And the GI50 (SF-539 CNS)?
A: 12 µM

Q: What about the TGI (SF-539 CNS) of the same compound?
A: 24.5 µM

Q: And the GI50 (SK-MEL-2 melanoma)?
A: 10.6 µM

Q: And the TGI (SK-MEL-2 melanoma)?
A: 24.3 µM

Q: And the GI50 (SK-MEL-28 melanoma)?
A: 10.2 µM

Q: What about the TGI (SK-MEL-28 melanoma) of the same compound?
A: 22.2 µM

Q: What about the GI50 (SK-MEL-5 melanoma) of the same compound?
A: 4.7 µM

Q: And the TGI (SK-MEL-5 melanoma)?
A: 16.9 µM

Q: And the GI50 (SK-OV-3 ovarian)?
A: 13 µM

Q: What about the TGI (SK-OV-3 ovarian) of the same compound?
A: 29.7 µM

Q: What about the GI50 (SN12C renal) of the same compound?
A: 8.2 µM

Q: And the TGI (SN12C renal)?
A: 20.7 µM

Q: What about the GI50 (SNB-19 CNS) of the same compound?
A: 10.4 µM

Q: And the TGI (SNB-19 CNS)?
A: 23 µM

Q: What about the GI50 (SNB-75 CNS) of the same compound?
A: 3.23 µM

Q: What about the TGI (SNB-75 CNS) of the same compound?
A: 33.4 µM

Q: What about the GI50 (SR leukemia) of the same compound?
A: 2.58 µM

Q: What about the TGI (SR leukemia) of the same compound?
A: 8.25 µM

Q: What about the GI50 (SW-620 colon) of the same compound?
A: 5.56 µM

Q: What about the TGI (SW-620 colon) of the same compound?
A: 20.4 µM

Q: What about the GI50 (T-47D breast) of the same compound?
A: 3.45 µM

Q: And the TGI (T-47D breast)?
A: 14.2 µM

Q: And the GI50 (TK-10 renal)?
A: 14.6 µM

Q: And the TGI (TK-10 renal)?
A: 30.9 µM

Q: What about the GI50 (U251 CNS) of the same compound?
A: 10.4 µM

Q: And the TGI (U251 CNS)?
A: 24.5 µM

Q: And the GI50 (UACC-257 melanoma)?
A: 12.6 µM

Q: And the TGI (UACC-257 melanoma)?
A: 27.8 µM

Q: What about the GI50 (UACC-62 melanoma) of the same compound?
A: 6.68 µM

Q: And the TGI (UACC-62 melanoma)?
A: 20.3 µM

Q: What about the GI50 (UO-31 renal) of the same compound?
A: 4.6 µM

Q: What about the TGI (UO-31 renal) of the same compound?
A: 17.2 µM
